Among the data in US5556858A, “Cis-2-[(4-heteroaryl-1-piperazinyl)alkyl] hexahydro-1H-isoindole-1,3 (2H)-diones and related compounds and their therapeutic utility” (Hoechst-Roussel Pharmaceuticals, Inc., priority 1995, dated 1996) are ED50 values, retold here.

Experiment [1] has as its system phenylquinone induced writhing. The experiment can be described thus: phenyl p-quinone writhing assay (analgesia). Format: in vivo, mice. As to conditions: Mus musculus, sc, dose effecting approximately 50% inhibition of writhing. The text has this: Some of the compounds of the present invention are also useful as analgetics due to their ability to alleviate pain in mammals. […] Exptl. Biol. Med., 95:729 (1957). Thus, for instance, the subcutaneous dose effecting an approximately 50% inhibition of writhing (ED50) in mice produced in this assay is as shown in Table 2.
A general note: In writhing tests, fewer writhes than in controls are read as antinociception.

The test system of the next experiment is apomorphine climbing. The experiment can be described thus: climbing mice assay (antipsychotic activity). As to conditions: Mus musculus; ip; apomorphine 1.5 mg/kg subcutaneously; climbing score vs control. It counts as in vivo, mice (CK-1 male). The method, then: Subject […] male mice (23-27 grams) are group-housed under standard laboratory conditions. The mice are individually placed in wire mesh stick cages (4"×10") and are allowed one hour for adaption and exploration of the new environment.
For evaluation of climbing, 3 readings are taken at 10, 20, and 30 minutes-after apomorphine administration according to the following scale: […]
Mice consistently climbing before the injection of apomorphine are discarded.
With full-developed apomorphine climbing, the animals are hanging on to the cage walls, rather motionless, over long periods of time. By contrast, climbs due to mere motor stimulation usually only last a few seconds.
The climbing scores are individually totaled (maximal score: 6 per mouse over 3 readings) and the total score of the control group (vehicle intraperitoneally-apomorphine subcutaneously) is set to 100%.

[2] abbreviates: read-out: INHIBITION OF PHE[…] WRITHING ED50.

The ED50 is the midpoint of the dose-response relation.

Molecules are shown by their SMILES. Read-outs that look alike come from different tables or passages of the source.

In the case of `CCC(=O)O[C@](Cc1ccccc1)(c1ccccc1)[C@H](C)CN(C)C` [Propoxyphene, reference compound], the ED50 in experiment [1] (setting [2]) is 3.9 mg/kg.
The same measure, in the same setting: then `CC(C)=CCN1CCC2(C)c3cc(O)ccc3CC1C2C` (stereo not shown) [Pentazocine, reference compound], with 1.3 mg/kg.
`COc1cc(C(C)=O)ccc1OCCCN1CCC(c2noc3ccccc23)CC1` [1-[4-[3-[4-(1,2-benzisoxazol-3-yl)-1-piperidinyl]propoxy]-3-methoxyphenyl]ethanone]: the values for the ED50 (in the experiment with apomorphine climbing; in experiment [1]) were 0.67 mg/kg and 0.17 mg/kg, respectively.
Regarding `COc1cc(C(C)=O)ccc1OCCCN1CCC(c2noc3cc(F)ccc23)CC1` [1-[4-[3-[4-(6-fluoro-1,2-benzisoxazol-3-yl)-1-piperidinyl]propoxy]-3-methoxyphenyl]ethanone], the 50% effective dose (ED50) was 0.095 mg/kg with apomorphine climbing and 0.03 mg/kg in experiment [1].
The molecule `Cl.O=C1c2ccccc2C(=O)N1CCN1CCC(c2noc3cc(F)ccc23)CC1` [N-[2-[4-(6-Fluoro-1,2-benzisoxazol-3-yl)-1-piperidinyl]ethyl]phthalimide h ydrochloride] displayed an ED50 in the experiment on apomorphine climbing of 0.48 mg/kg.
As for `COc1cc(C(C)=O)ccc1OCCCN1CCN(c2n[nH]c3ccccc23)CC1` [1-[4-[3-[4-(1H-indazol-3-yl)-1-piperazinyl]propoxy]-3-methoxyphenyl]ethanone], the 50% effective dose (ED50) with apomorphine climbing was found to be 0.98 mg/kg; in experiment [1], 0.06 mg/kg.
Regarding `Cl.O=C1c2ccccc2C(=O)N1CCN1CCC(c2n[nH]c3cc(F)ccc23)CC1` [N-[2-[4-(6-Fluoro-1H-indazol-3-yl)-1-piperidinyl]ethyl]phthalimide hydrochloride], it took a dose of 0.8 mg/kg to reach the 50% effect level with apomorphine climbing (ED50).
